Data reported in patent US8158636B2, “Compounds and methods for kinase modulation, and indications therefor” (Plexxikon Inc., priority 2008, dated 2012).

Legend:
Assay type in all cases: biochemical
[1] = biological target: Kdr (Homo sapiens, UniProt P35968); assay: Kinase activity assay, Kdr; conditions: Table 1i; read-out: activity toward kinase Kdr, IC50
Excerpt: (§1) Assays for the activity of kinases, including, but not limited to, Fms, Kit, B-Raf, B-Raf V600E, c-Raf-1, and TrkA are known in the art, for example as described in US Patent Publication Number US20070032519 and U.S. patent application Ser. No. 11/473,347 (see also, PCT publication WO2007002433), the disclosures of which are hereby incorporated by reference with respect to such assays.

[2] = biological target: Kit (Homo sapiens, UniProt P10721); assay: Kinase activity assay, Kit; conditions: Table 1j; read-out: activity toward kinase Kit, IC50
Sequence of Kit (P10721 26-976): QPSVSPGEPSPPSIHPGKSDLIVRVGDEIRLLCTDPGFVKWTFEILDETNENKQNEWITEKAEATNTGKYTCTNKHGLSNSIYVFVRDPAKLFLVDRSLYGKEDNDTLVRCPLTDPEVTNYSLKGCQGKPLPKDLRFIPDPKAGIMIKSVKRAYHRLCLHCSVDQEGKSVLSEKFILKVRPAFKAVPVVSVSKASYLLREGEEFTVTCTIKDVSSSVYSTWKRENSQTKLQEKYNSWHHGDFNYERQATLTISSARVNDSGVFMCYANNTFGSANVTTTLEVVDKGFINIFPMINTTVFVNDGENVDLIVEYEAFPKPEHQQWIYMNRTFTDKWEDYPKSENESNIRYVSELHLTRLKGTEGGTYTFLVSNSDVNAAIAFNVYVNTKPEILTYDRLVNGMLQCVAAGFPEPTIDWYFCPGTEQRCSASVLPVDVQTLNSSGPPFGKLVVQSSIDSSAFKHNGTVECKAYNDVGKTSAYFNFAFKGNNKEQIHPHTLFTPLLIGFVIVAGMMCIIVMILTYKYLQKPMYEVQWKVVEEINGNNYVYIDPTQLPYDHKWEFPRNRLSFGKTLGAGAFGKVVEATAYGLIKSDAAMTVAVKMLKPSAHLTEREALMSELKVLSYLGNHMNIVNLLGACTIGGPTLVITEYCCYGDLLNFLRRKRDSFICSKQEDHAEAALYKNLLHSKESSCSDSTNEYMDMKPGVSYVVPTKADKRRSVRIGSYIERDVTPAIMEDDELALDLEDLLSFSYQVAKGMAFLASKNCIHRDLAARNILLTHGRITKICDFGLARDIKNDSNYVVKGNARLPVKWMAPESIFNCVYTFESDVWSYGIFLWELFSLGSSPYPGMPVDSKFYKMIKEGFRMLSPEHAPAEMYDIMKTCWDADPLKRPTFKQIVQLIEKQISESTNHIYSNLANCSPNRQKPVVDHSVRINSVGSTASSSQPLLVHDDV
Excerpt: as §1

[3] = biological target: Fms (Homo sapiens, UniProt P07333); assay: Kinase activity assay, Fms; conditions: Table 1h; read-out: activity toward kinase Fms, IC50
Sequence of Fms (P07333 20-972): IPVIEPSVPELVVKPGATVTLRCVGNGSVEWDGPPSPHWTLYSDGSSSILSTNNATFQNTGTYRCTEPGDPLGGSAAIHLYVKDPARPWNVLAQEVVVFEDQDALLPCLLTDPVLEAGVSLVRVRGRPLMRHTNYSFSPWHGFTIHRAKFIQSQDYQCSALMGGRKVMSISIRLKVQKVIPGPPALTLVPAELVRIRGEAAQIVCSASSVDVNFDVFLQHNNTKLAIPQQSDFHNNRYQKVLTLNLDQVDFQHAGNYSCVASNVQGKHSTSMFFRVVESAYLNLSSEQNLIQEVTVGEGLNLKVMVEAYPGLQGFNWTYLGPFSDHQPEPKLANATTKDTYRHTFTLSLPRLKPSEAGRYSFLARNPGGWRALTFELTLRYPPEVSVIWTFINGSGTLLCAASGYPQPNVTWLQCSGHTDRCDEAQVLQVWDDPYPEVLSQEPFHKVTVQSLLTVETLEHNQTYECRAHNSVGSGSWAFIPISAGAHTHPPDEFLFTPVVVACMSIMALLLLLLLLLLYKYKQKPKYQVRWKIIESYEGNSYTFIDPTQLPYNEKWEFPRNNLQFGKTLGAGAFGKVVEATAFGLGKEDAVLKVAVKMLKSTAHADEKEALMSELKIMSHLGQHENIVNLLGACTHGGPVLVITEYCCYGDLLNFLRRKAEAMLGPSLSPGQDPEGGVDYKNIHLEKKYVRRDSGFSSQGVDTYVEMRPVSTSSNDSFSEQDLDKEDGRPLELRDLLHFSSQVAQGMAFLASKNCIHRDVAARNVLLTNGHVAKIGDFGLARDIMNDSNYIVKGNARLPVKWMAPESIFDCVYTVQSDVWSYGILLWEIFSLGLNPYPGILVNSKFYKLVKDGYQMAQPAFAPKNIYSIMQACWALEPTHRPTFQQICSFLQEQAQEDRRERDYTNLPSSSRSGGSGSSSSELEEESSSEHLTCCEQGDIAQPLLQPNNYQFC
Excerpt: as §1

Sequence of Kdr (P35968 20-1356): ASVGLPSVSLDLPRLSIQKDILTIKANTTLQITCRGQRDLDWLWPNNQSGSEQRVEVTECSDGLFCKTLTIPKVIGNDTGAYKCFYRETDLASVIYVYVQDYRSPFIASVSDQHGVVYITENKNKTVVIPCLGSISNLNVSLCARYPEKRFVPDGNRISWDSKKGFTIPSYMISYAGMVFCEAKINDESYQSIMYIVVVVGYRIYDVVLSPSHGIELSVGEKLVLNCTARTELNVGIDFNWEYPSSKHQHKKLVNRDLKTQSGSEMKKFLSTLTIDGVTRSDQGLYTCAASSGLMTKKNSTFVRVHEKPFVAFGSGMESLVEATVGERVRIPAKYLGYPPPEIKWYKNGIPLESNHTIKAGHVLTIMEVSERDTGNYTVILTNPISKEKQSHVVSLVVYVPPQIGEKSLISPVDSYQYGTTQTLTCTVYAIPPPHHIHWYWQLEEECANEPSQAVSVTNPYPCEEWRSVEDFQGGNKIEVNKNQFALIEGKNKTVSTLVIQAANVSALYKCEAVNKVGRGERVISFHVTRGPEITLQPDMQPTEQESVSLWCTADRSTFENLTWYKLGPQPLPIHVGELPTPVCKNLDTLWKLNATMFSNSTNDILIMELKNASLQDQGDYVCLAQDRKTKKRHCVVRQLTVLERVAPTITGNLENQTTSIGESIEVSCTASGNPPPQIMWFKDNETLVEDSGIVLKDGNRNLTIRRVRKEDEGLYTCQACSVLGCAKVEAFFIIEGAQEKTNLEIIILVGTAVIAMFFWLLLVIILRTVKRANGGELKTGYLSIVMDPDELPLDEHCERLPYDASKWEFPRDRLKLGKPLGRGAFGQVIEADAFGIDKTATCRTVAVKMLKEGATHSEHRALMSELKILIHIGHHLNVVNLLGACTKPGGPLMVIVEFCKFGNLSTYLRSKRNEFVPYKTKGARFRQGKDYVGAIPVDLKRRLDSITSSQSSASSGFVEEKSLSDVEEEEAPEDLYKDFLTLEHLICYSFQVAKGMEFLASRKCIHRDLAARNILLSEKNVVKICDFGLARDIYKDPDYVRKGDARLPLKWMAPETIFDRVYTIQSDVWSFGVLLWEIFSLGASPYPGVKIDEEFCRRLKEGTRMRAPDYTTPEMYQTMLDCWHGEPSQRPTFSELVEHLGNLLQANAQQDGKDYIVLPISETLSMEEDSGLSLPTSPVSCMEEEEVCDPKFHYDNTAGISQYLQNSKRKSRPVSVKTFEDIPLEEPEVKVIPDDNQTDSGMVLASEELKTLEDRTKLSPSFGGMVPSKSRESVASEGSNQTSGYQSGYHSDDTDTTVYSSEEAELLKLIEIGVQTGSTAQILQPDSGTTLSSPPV

Compound	IC50 [1]	IC50 [2]	IC50 [3]
COc1ccc(CNc2ncc(Cc3c[nH]c4ncncc34)cc2C)cn1 [P-0012, (6-Methoxy-pyridin-3-ylmethyl)-[3-methyl-5-(7H-pyrrolo[2,3-d]pyrimidin-5-ylmethyl)-pyridin-2-yl]-amine]	≤ 10 µM	≤ 10 µM	≤ 10 µM
COc1ccc(CNc2ncc(Cc3c[nH]c4ncncc34)cn2)cn1 [P-0015, (6-Methoxy-pyridin-3-ylmethyl)-[5-(7H-pyrrolo[2,3-d]pyrimidin-5-ylmethyl)-pyrimidin-2-yl]-amine]	≤ 10 µM	≤ 10 µM	≤ 10 µM
COc1ccc(CNc2ncc(Cc3c[nH]c4ncncc34)cc2F)cn1 [P-0017, [3-Fluoro-5-(7H-pyrrolo[2,3-d]pyrimidin-5-ylmethyl)-pyridin-2-yl]-(6-methoxy-pyridin-3-ylmethyl)-amine]	≤ 10 µM	≤ 10 µM	≤ 10 µM
Fc1nc(NCc2cnccc2C(F)(F)F)ccc1Cc1c[nH]c2ncncc12 [P-0018, [6-Fluoro-5-(7H-pyrrolo[2,3-d]pyrimidin-5-ylmethyl)-pyridin-2-yl]-(4-trifluoromethyl-pyridin-3-ylmethyl)-amine]	≤ 10 µM	≤ 10 µM	≤ 10 µM
COc1ccc(CNc2ccc(C(=O)c3c[nH]c4ncncc34)c(C)n2)cn1 [P-0019, {6-[(6-Methoxy-pyridin-3-ylmethyl)-amino]-2-methyl-pyridin-3-yl}-(7H-pyrrolo[2,3-d]pyrimidin-5-yl)-methanone]	–	–	≤ 10 µM
Cc1cc(CNc2ccc(Cc3c[nH]c4ncncc34)c(F)n2)ccn1 [P-0020, [6-Fluoro-5-(7H-pyrrolo[2,3-d]pyrimidin-5-ylmethyl)-pyridin-2-yl]-(2-methyl-pyridin-4-ylmethyl)-amine]	≤ 10 µM	–	≤ 10 µM
COc1cc(CNc2ccc(Cc3c[nH]c4ncncc34)c(F)n2)ccn1 [P-0023, [6-Fluoro-5-(7H-pyrrolo[2,3-d]pyrimidin-5-ylmethyl)-pyridin-2-yl]-(2-methoxy-pyridin-4-ylmethyl)-amine]	≤ 10 µM	≤ 10 µM	≤ 10 µM
COc1cc(CNc2ncc(Cc3c[nH]c4ncncc34)cn2)c(F)cn1 [P-0025, (5-Fluoro-2-methoxy-pyridin-4-ylmethyl)-[5-(7H-pyrrolo[2,3-d]pyrimidin-5-ylmethyl)-pyrimidin-2-yl]-amine]	≤ 10 µM	–	≤ 10 µM
COc1ncccc1CNc1ccc(Cc2c[nH]c3ncncc23)c(F)n1 [P-0026, [6-Fluoro-5-(7H-pyrrolo[2,3-d]pyrimidin-5-ylmethyl)-pyridin-2-yl]-(2-methoxy-pyridin-3-ylmethyl)-amine]	≤ 10 µM	≤ 10 µM	≤ 10 µM
Fc1nc(NCc2ccc(Cl)cn2)ccc1Cc1c[nH]c2ncncc12 [P-0027, (5-Chloro-pyridin-2-ylmethyl)-[6-fluoro-5-(7H-pyrrolo[2,3-d]pyrimidin-5-ylmethyl)-pyridin-2-yl]-amine]	≤ 10 µM	≤ 10 µM	≤ 10 µM
c1ccc(CNc2ncc(Cc3c[nH]c4ncncc34)cn2)nc1 [P-0028, Pyridin-2-ylmethyl-[5-(7H-pyrrolo[2,3-d]pyrimidin-5-ylmethyl)-pyrimidin-2-yl]-amine]	–	–	≤ 10 µM
Clc1ccc(CNc2ncc(Cc3c[nH]c4ncncc34)cn2)cn1 [P-0029, (6-Chloro-pyridin-3-ylmethyl)-[5-(7H-pyrrolo[2,3-d]pyrimidin-5-ylmethyl)-pyrimidin-2-yl]-amine]	≤ 10 µM	≤ 10 µM	≤ 10 µM
FC(F)(F)c1ccc(CNc2ncc(Cc3c[nH]c4ncncc34)cn2)cn1 [P-0030, [5-(7H-Pyrrolo[2,3-d]pyrimidin-5-ylmethyl)-pyrimidin-2-yl]-(6-trifluoromethyl-pyridin-3-ylmethyl)-amine]	≤ 10 µM	≤ 10 µM	≤ 10 µM
c1cc(CNc2ncc(Cc3c[nH]c4ncncc34)cn2)nc(N2CCOCC2)c1 [P-0031, (6-Morpholin-4-yl-pyridin-2-ylmethyl)-[5-(7H-pyrrolo[2,3-d]pyrimidin-5-ylmethyl)-pyrimidin-2-yl]-amine]	≤ 10 µM	≤ 10 µM	≤ 10 µM
c1cc(CNc2ncc(Cc3c[nH]c4ncncc34)cn2)nc(N2CCCC2)c1 [P-0032, (6-Pyrrolidin-1-yl-pyridin-2-ylmethyl)-[5-(7H-pyrrolo[2,3-d]pyrimidin-5-ylmethyl)-pyrimidin-2-yl]-amine]	≤ 10 µM	≤ 10 µM	≤ 10 µM
CCc1ccc(CNc2ncc(Cc3c[nH]c4ncncc34)cn2)nc1 [P-0033, (5-Ethyl-pyridin-2-ylmethyl)-[5-(7H-pyrrolo[2,3-d]pyrimidin-5-ylmethyl)-pyrimidin-2-yl]-amine]	≤ 10 µM	≤ 10 µM	≤ 10 µM
Cc1cnccc1CNc1ncc(Cc2c[nH]c3ncncc23)cn1 [P-0034, (3-Methyl-pyridin-4-ylmethyl)-[5-(7H-pyrrolo[2,3-d]pyrimidin-5-ylmethyl)-pyrimidin-2-yl]-amine]	–	–	≤ 10 µM
Cc1cc(CNc2ncc(Cc3c[nH]c4ncncc34)cn2)ccn1 [P-0035, (2-Methyl-pyridin-4-ylmethyl)-[5-(7H-pyrrolo[2,3-d]pyrimidin-5-ylmethyl)-pyrimidin-2-yl]-amine]	–	–	≤ 10 µM
c1cc(CNc2ncc(Cc3c[nH]c4ncncc34)cn2)cc(N2CCOCC2)n1 [P-0036, (2-Morpholin-4-yl-pyridin-4-ylmethyl)-[5-(7H-pyrrolo[2,3-d]pyrimidin-5-ylmethyl)-pyrimidin-2-yl]-amine]	≤ 10 µM	≤ 10 µM	≤ 10 µM
CNc1ncc(CNc2ccc(Cc3c[nH]c4ncncc34)c(F)n2)cn1 [P-0042, (5-{[6-Fluoro-5-(7H-pyrrolo[2,3-d]pyrimidin-5-ylmethyl)-pyridin-2-ylamino]-methyl}-pyrimidin-2-yl)-methyl-amine]	–	–	≤ 10 µM
Fc1nc(NCc2ccncc2Br)ccc1Cc1c[nH]c2ncncc12 [P-0046, (3-Bromo-pyridin-4-ylmethyl)-[6-fluoro-5-(7H-pyrrolo[2,3-d]pyrimidin-5-ylmethyl)-pyridin-2-yl]-amine]	≤ 10 µM	–	≤ 10 µM
Fc1nc(NCc2ccncc2Cl)ccc1Cc1c[nH]c2ncncc12 [P-0047, (3-Chloro-pyridin-4-ylmethyl)-[6-fluoro-5-(7H-pyrrolo[2,3-d]pyrimidin-5-ylmethyl)-pyridin-2-yl]-amine]	≤ 10 µM	–	≤ 10 µM
Cc1ncc(CNc2ccc(Cc3c[nH]c4ncncc34)c(F)n2)cn1 [P-0048, [6-Fluoro-5-(7H-pyrrolo[2,3-d]pyrimidin-5-ylmethyl)-pyridin-2-yl]-(2-methyl-pyrimidin-5-ylmethyl)-amine]	–	–	≤ 10 µM

Second part, the molecule after the results:

IC50 [1]	IC50 [2]	IC50 [3]	Compound
–	–	≤ 10 µM	Fc1cnccc1CNc1ccc(Cc2c[nH]c3ncncc23)c(F)n1 [P-0049, (3-Fluoro-pyridin-4-ylmethyl)-[6-fluoro-5-(7H-pyrrolo[2,3-d]pyrimidin-5-ylmethyl)-pyridin-2-yl]-amine]
–	–	≤ 10 µM	Cc1cnccc1CNc1ccc(Cc2c[nH]c3ncncc23)c(F)n1 [P-0055, [6-Fluoro-5-(7H-pyrrolo[2,3-d]pyrimidin-5-ylmethyl)-pyridin-2-yl]-(3-methyl-pyridin-4-ylmethyl)-amine]
–	–	≤ 10 µM	COc1ccncc1CNc1ccc(Cc2c[nH]c3ncncc23)c(F)n1 [P-0056, [6-Fluoro-5-(7H-pyrrolo[2,3-d]pyrimidin-5-ylmethyl)-pyridin-2-yl]-(4-methoxy-pyridin-3-ylmethyl)-amine]
≤ 10 µM	–	≤ 10 µM	Cc1ccnc(CNc2ccc(Cc3c[nH]c4ncncc34)c(F)n2)c1 [P-0058, [6-Fluoro-5-(7H-pyrrolo[2,3-d]pyrimidin-5-ylmethyl)-pyridin-2-yl]-(4-methyl-pyridin-2-ylmethyl)-amine]
≤ 10 µM	–	≤ 10 µM	Fc1nc(NCc2ccnc(N3CCCC3)c2)ccc1Cc1c[nH]c2ncncc12 [P-0059, [6-Fluoro-5-(7H-pyrrolo[2,3-d]pyrimidin-5-ylmethyl)-pyridin-2-yl]-(2-pyrrolidin-1-yl-pyridin-4-ylmethyl)-amine]
≤ 10 µM	–	≤ 10 µM	CNc1ncccc1CNc1ccc(Cc2c[nH]c3ncncc23)c(F)n1 [P-0066, [6-Fluoro-5-(7H-pyrrolo[2,3-d]pyrimidin-5-ylmethyl)-pyridin-2-yl]-(2-methylamino-pyridin-3-ylmethyl)-amine]
≤ 10 µM	–	≤ 10 µM	Fc1ncccc1CNc1ccc(Cc2c[nH]c3ncncc23)c(F)n1 [P-0068, (2-Fluoro-pyridin-3-ylmethyl)-[6-fluoro-5-(7H-pyrrolo[2,3-d]pyrimidin-5-ylmethyl)-pyridin-2-yl]-amine]
≤ 10 µM	–	≤ 10 µM	Fc1cc(CNc2ccc(Cc3c[nH]c4ncncc34)c(F)n2)ccn1 [P-0074, (2-Fluoro-pyridin-4-ylmethyl)-[6-fluoro-5-(7H-pyrrolo[2,3-d]pyrimidin-5-ylmethyl)-pyridin-2-yl]-amine]
–	–	≤ 10 µM	COCCc1ncc(CNc2ccc(Cc3c[nH]c4ncncc34)c(F)n2)cn1 [P-0080, [6-Fluoro-5-(7H-pyrrolo[2,3-d]pyrimidin-5-ylmethyl)-pyridin-2-yl]-[2-(2-methoxy-ethyl)-pyrimidin-5-ylmethyl]-amine]
≤ 10 µM	≤ 10 µM	≤ 10 µM	COc1cc(F)cc(CNc2ccc(Cc3c[nH]c4ncncc34)c(F)n2)c1 [P-0083, (3-Fluoro-5-methoxy-benzyl)-[6-fluoro-5-(7H-pyrrolo[2,3-d]pyrimidin-5-ylmethyl)-pyridin-2-yl]-amine]
–	≤ 10 µM	≤ 10 µM	COc1ncccc1CNc1ncc(Cc2c[nH]c3ncncc23)cn1 [P-0084, (2-Methoxy-pyridin-3-ylmethyl)-[5-(7H-pyrrolo[2,3-d]pyrimidin-5-ylmethyl)-pyrimidin-2-yl]-amine]
